Data as given in patent US10954232B2, “Pyrazole derivative as ALK5 inhibitor and uses thereof” (HANMI PHARMACEUTICAL CO., LTD., priority 2016, dated 2021).

Target: T1, ALK5 kinase (Homo sapiens, UniProt P36897)
T1 construct: GST; purchased Thermo Fisher Scientific Solutions
T1 sequence (P36897 34-503): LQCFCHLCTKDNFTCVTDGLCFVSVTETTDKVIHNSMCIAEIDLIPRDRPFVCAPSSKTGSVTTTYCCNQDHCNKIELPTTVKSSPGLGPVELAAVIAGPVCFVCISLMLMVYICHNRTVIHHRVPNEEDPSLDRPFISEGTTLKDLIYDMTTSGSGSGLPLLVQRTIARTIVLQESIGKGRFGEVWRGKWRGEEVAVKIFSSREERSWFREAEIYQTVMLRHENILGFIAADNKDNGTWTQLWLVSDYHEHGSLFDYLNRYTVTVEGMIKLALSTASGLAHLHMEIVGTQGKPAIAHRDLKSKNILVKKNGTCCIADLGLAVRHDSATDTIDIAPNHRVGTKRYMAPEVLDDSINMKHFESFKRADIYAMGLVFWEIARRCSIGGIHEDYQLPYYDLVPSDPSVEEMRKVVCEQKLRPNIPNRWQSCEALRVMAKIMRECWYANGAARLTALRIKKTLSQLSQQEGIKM
Experiment: Activity inhibition test on ALK5 enzyme (LanthaScreen Eu binding kinase assay)
Conditions: kinase tracer 178, 60 minutes at room temperature
How it was run: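 IC50 is the concentration giving 50% inhibition relative to control, taken from fluorescence after 60 min stirring at room temperature. Final mix held kinase 5 nM, Eu-GST binding antibody 2 nM and tracer 178 10 nM. Compounds were serially diluted from 1 μM to 0.0001 μM.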

| Compound | IC50 [nM] |
| --- | --- |
| Cc1cccc(-n2nc(C(=O)Nc3ccccc3C)cc2-c2ccc3ncnn3c2)n1 [Example 115, 5-([1,2,4]triazolo[1,5-α]pyridin-6-yl)-1-(6-methylpyridin-2-yl)-N-(o-tolyl)-1H-pyrazole-3-carboxyamide] | 10 to 100 |
| Cc1cccc(NC(=O)c2cc(-c3ccc4ncnn4c3)n(-c3cccc(C)n3)n2)c1 [Example 116, 5-([1,2,4]triazolo[1,5-α]pyridin-6-yl)-1-(6-methylpyridin-2-yl)-N-(m-tolyl)-1H-pyrazole-3-carboxyamide] | ~10 |
| Cc1ccc(NC(=O)c2cc(-c3ccc4ncnn4c3)n(-c3cccc(C)n3)n2)cc1 [Example 117, 5-([1,2,4]triazolo[1,5-α]pyridin-6-yl)-1-(6-methylpyridin-2-yl)-N-(p-tolyl)-1H-pyrazole-3-carboxyamide] | 10 to 100 |
| Cc1cccc(-n2nc(C(=O)Nc3cccc(C(F)(F)F)c3)cc2-c2ccc3ncnn3c2)n1 [Example 118, 5-([1,2,4]triazolo[1,5-α]pyridin-6-yl)-1-(6-methylpyridin-2-yl)-N-(3-(trifluoromethyl)phenyl)-1H-pyrazole-3-carboxyamide] | 10 to 100 |
| C=Cc1ccc(NC(=O)c2cc(-c3ccc4ncnn4c3)n(-c3cccc(C)n3)n2)cc1 [Example 119, 5-([1,2,4]triazolo[1,5-α]pyridin-6-yl)-1-(6-methylpyridin-2-yl)-N-(4-vinylphenyl)-1H-pyrazole-3-carboxyamide] | < 10 |
| Cc1cccc(-n2nc(C(=O)Nc3cccc(C#N)c3)cc2-c2ccc3ncnn3c2)n1 [Example 120, 5-([1,2,4]triazolo[1,5-α]pyridin-6-yl)-N-(3-cyanophenyl)-1-(6-methylpyridin-2-yl)-1H-pyrazole-3-carboxyamide] | 10 to 100 |
| Cc1cccc(-n2nc(C(=O)Nc3ccc(C#N)cc3)cc2-c2ccc3ncnn3c2)n1 [Example 121, 5-([1,2,4]triazolo[1,5-α]pyridin-6-yl)-N-(4-cyanophenyl)-1-(6-methylpyridin-2-yl)-1-H-pyrazole-3-carboxyamide] | 10 to 100 |
| CC(=O)c1cccc(NC(=O)c2cc(-c3ccc4ncnn4c3)n(-c3cccc(C)n3)n2)c1 [Example 122, 5-([1,2,4]triazolo[1,5-α]pyridin-6-yl)-N-(3-acetylphenyl)-1-(6-methylpyridin-2-yl)-1H-pyrazole-3-carboxyamide] | 10 to 100 |
| CC(=O)c1ccc(NC(=O)c2cc(-c3ccc4ncnn4c3)n(-c3cccc(C)n3)n2)cc1 [Example 123, 5-([1,2,4]triazolo[1,5-α]pyridin-6-yl)-N-(4-acetylphenyl)-1-(6-methylpyridin-2-yl)-1H-pyrazole-3-carboxyamide] | 10 to 100 |
| Cc1cccc(-n2nc(C(=O)Nc3ccccc3F)cc2-c2ccc3ncnn3c2)n1 [Example 124, 5-([1,2,4]triazolo[1,5-α]pyridin-6-yl)-N-(2-fluorophenyl)-1-(6-methylpyridin-2-yl)-1H-pyrazole-3-carboxyamide] | 31 |
| Cc1cccc(-n2nc(C(=O)Nc3cccc(F)c3)cc2-c2ccc3ncnn3c2)n1 [Example 125, 5-([1,2,4]triazolo[1,5-α]pyridin-6-yl)-N-(3-fluorophenyl)-1-(6-methylpyridin-2-yl)-1H-pyrazole-3-carboxyamide] | 10 to 100 |
| Cc1cccc(-n2nc(C(=O)Nc3ccc(F)cc3)cc2-c2ccc3ncnn3c2)n1 [Example 126, 5-([1,2,4]triazolo[1,5-α]pyridin-6-yl)-N-(4-fluorophenyl)-1-(6-methylpyridin-2-yl)-1H-pyrazole-3-carboxyamide] | ~10 |
| Cc1cccc(-n2nc(C(=O)Nc3ccccc3Cl)cc2-c2ccc3ncnn3c2)n1 [Example 127, 5-([1,2,4]triazolo[1,5-α]pyridin-6-yl)-N-(2-chlorophenyl)-1-(6-methylpyridin-2-yl)-1H-pyrazole-3-carboxyamide] | ~100 |
| Cc1cccc(-n2nc(C(=O)Nc3cccc(Cl)c3)cc2-c2ccc3ncnn3c2)n1 [Example 128, 5-([1,2,4]triazolo[1,5-α]pyridin-6-yl)-N-(3-chlorophenyl)-1-(6-methylpyridin-2-yl)-1H-pyrazole-3-carboxyamide] | 10 to 100 |
| Cc1cccc(-n2nc(C(=O)Nc3ccc(Cl)cc3)cc2-c2ccc3ncnn3c2)n1 [Example 129, 5-([1,2,4]triazolo[1,5-α]pyridin-6-yl)-N-(4-chlorophenyl)-1-(6-methylpyridin-2-yl)-1H-pyrazole-3-carboxyamide] | 10 to 100 |
| Cc1cccc(-n2nc(C(=O)Nc3ccccc3Br)cc2-c2ccc3ncnn3c2)n1 [Example 130, 5-([1,2,4]triazolo[1,5-α]pyridin-6-yl)-N-(2-bromophenyl)-1-(6-methylpyridin-2-yl)-1H-pyrazole-3-carboxyamide] | 10 to 100 |
| Cc1cccc(-n2nc(C(=O)Nc3cccc(Br)c3)cc2-c2ccc3ncnn3c2)n1 [Example 131, 5-([1,2,4]triazolo[1,5-α]pyridin-6-yl)-N-(3-bromophenyl)-1-(6-methylpyridin-2-yl)-1H-pyrazole-3-carboxyamide] | 10 to 100 |
| Cc1cccc(-n2nc(C(=O)Nc3ccc(Br)cc3)cc2-c2ccc3ncnn3c2)n1 [Example 132, 5-([1,2,4]triazolo[1,5-α]pyridin-6-yl)-N-(4-bromophenyl)-1-(6-methylpyridin-2-yl)-1H-pyrazole-3-carboxyamide] | ~10 |
| Cc1cccc(-n2nc(C(=O)Nc3cccc(F)c3F)cc2-c2ccc3ncnn3c2)n1 [Example 133, 5-([1,2,4]triazolo[1,5-α]pyridin-6-yl)-N-(2,3-difluorophenyl)-1-(6-methylpyridin-2-yl)-1H-pyrazole-3-carboxyamide] | 10 to 100 |
| Cc1cccc(-n2nc(C(=O)Nc3ccc(F)cc3F)cc2-c2ccc3ncnn3c2)n1 [Example 134, 5-([1,2,4]triazolo[1,5-α]pyridin-6-yl)-N-(2,4-difluorophenyl)-1-(6-methylpyridin-2-yl)-1H-pyrazole-3-carboxyamide] | 10 to 100 |
| Cc1cccc(-n2nc(C(=O)Nc3cc(F)ccc3F)cc2-c2ccc3ncnn3c2)n1 [Example 135, 5-([1,2,4]triazolo[1,5-α]pyridin-6-yl)-N-(2,5-difluorophenyl)-1-(6-methylpyridin-2-yl)-1H-pyrazole-3-carboxyamide] | 10 to 100 |
| Cc1cccc(-n2nc(C(=O)Nc3ccc(F)c(F)c3)cc2-c2ccc3ncnn3c2)n1 [Example 136, 5-([1,2,4]triazolo[1,5-α]pyridin-6-yl)-N-(3,4-difluorophenyl)-1-(6-methylpyridin-2-yl)-1H-pyrazole-3-carboxyamide] | ~10 |
| Cc1cccc(-n2nc(C(=O)Nc3cc(F)cc(F)c3)cc2-c2ccc3ncnn3c2)n1 [Example 137, 5-([1,2,4]triazolo[1,5-α]pyridin-6-yl)-N-(3,5-difluorophenyl)-1-(6-methylpyridin-2-yl)-1H-pyrazole-3-carboxyamide] | 10 to 100 |
| Cc1cccc(-n2nc(C(=O)Nc3cccc(Cl)c3F)cc2-c2ccc3ncnn3c2)n1 [Example 138, 5-([1,2,4]triazolo[1,5-α]pyridin-6-yl)-N-(3-chloro-2-fluorophenyl)-1-(6-methylpyridin-2-yl)-1H-pyrazole-3-carboxyamide] | 10 to 100 |
| Cc1cccc(-n2nc(C(=O)Nc3ccc(Cl)cc3F)cc2-c2ccc3ncnn3c2)n1 [Example 139, 5-([1,2,4]triazolo[1,5-α]pyridin-6-yl)-N-(4-chloro-2-fluorophenyl)-1-(6-methylpyridin-2-yl)-1H-pyrazole-3-carboxyamide] | 10 to 100 |
